Source: PubChem BioAssay AID1794825

Target: Sodium- and chloride-dependent glycine transporter 2 (Homo sapiens) (UniProt Q9Y345)
Assay: PubChem AID 1794825
Conditions: HEK-293 SLC6A5 OE, FLIPR membrane potential dye

Sodium- and chloride-dependent glycine transporter 2 (Homo sapiens), sequence (Q9Y345 whole entry, looked up): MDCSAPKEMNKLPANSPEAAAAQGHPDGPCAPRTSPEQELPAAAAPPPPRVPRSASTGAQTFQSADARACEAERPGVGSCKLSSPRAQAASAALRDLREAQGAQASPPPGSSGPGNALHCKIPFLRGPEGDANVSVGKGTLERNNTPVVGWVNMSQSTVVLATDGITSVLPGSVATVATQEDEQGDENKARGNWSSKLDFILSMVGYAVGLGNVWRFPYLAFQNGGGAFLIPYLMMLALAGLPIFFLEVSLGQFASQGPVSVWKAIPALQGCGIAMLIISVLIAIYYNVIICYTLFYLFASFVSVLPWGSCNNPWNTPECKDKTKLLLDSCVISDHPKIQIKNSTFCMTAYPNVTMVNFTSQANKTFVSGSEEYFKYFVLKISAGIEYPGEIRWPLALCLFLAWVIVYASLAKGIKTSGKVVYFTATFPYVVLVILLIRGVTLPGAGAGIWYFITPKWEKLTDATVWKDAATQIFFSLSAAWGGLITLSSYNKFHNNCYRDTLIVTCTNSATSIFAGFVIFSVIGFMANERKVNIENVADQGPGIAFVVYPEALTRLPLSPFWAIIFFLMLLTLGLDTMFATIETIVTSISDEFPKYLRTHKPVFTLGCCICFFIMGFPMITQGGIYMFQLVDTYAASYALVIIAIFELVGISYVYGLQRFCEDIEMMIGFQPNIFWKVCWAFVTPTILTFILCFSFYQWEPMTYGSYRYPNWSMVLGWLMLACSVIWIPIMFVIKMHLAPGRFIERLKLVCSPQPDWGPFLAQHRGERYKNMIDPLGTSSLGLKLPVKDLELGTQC

EC50: 128 µM
Compound: NCC(=O)O
